Assay results from US11186618B2, “Dendritic-cell-targeted peptide, fusion peptide utilizing said peptide, and vaccine utilizing said fusion peptide” (The Research Foundation for Microbial Diseases of Osaka …, priority 2016, dated 2021).

System: antigen-specific CD8^+ CTLs
Assay: IFN-γ production by immune cells of regional lymph nodes, Kras G12D peptide (Test Example 10)
Format: in vivo, mouse
Conditions: 50 μg as G12D-derived peptide with 10 μg CpG oligodeoxynucleotide, subcutaneously into the ears Day 0, lymph node cells Day 7, cultured 24 hours
Procedure: A fusion peptide (G12D-FL4) was prepared by linking the N-terminus of the peptide consisting of the amino acid sequence of FL4 to the C-terminus of a partial peptide of Kras containing G12D mutation (G12D-derived peptide; LVVVGADGV (SEQ ID NO: 42); the 6th to 14th amino acid sequence from the N-terminal side of Kras containing G12D mutation). Specifically, the amino acid sequence of the fusion peptide is [Partial sequence of Kras containing G12D mutation (LVVVGADGV; SEQ ID NO: 42)]-[VSYKAIR; SEQ ID NO: 1]. The production method of the fusion peptide was the same as that of PspA-FL4 except that a DNA molecule encoding the G12D-derived peptide was used.
50 μL of physiological saline containing 50 μg of G12D-FL4 in terms of the G12D-derived peptide amount and 10 μg of CpG oligodeoxynucleotide (K3 type, product name “K3 Et-Free”, product number “CN-65003” manufactured by GeneDesign Inc.) was administered subcutaneously into the ears of 7-week old C57BL/6 mice on Day 0, regional lymph nodes were collected on Day 7 and immune cells were recovered. […]

Substance	induction of antigen-specific CD8+ CTLs (IFN-γ production ability)
LVVVGADGV [G12D-derived peptide, partial peptide of Kras containing G12D mutation, reference compound]	no induction
[Partial sequence of Kras containing G12D mutation (LVVVGADGV; SEQ ID NO: 42)]-[VSYKAIR; SEQ ID NO: 1] (LVVVGADGVVSYKAIR; G12D-derived peptide; Amino acid sequence of motif sequence) [G12D-FL4, fusion peptide of G12D-derived peptide and FL4]	very strong induction
